The target in one test is T1, RET(KD: 658-1114 G810R) (Homo sapiens, UniProt P07949, G810R).
T1 construct: 658-1114; expressed in transfected cells; host or cells: 293T.165 (293T cells, generated in-house)
T1 sequence (P07949 658-1114 G810R): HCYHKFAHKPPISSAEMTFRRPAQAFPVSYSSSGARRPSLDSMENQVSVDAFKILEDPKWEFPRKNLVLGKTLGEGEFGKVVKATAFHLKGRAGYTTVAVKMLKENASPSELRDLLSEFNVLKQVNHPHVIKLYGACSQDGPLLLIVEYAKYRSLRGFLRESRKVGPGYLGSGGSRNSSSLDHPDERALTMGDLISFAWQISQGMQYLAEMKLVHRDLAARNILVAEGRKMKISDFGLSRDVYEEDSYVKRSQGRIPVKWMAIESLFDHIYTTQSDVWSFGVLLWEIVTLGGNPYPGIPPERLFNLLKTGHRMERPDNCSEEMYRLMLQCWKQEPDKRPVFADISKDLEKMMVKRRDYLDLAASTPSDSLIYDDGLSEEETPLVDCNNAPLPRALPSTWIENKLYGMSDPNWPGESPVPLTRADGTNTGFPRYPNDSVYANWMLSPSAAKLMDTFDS
The test is described as follows: HiBiT-Degradation, RET G810R degradation assay (Nano-Glo HiBiT Lytic), 293T.165 cells. Type of test: cell-based. To be noted: for Emax / DC50: 6.0 hours; for Emax: % remaining protein, read-out: 293T.165 RET(KD: 658-1114 G810R) 6.0 hours (Emax); for DC50: half-maximal degradation concentration, read-out: 293T.165 RET(KD: 658-1114 G810R) 6.0 hours (DC50). The method, boiled down:
(§1)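 HEK293T lines expressing HiBiT-tagged RET kinase domain, wild-type (293T.144) or G810R (293T.165), treated 6 h in duplicate, 11-point half-log series from 10 μM top. Lytic HiBiT luminescence read; DC50 and Emax (% protein remaining) from dose-response curves.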

The target of another test is T2, RET (658-1114) (Homo sapiens, UniProt P07949).
T2 construct: 658-1114; expressed in transfected cells; host or cells: 293T.144 (293T cells, generated in-house)
T2 sequence (P07949 658-1114): T1 sequence (P07949 658-1114 G810R) with R153G
The test is described as follows: HiBiT-Degradation, RET wild-type degradation assay (Nano-Glo HiBiT Lytic), 293T.144 cells. The class given is cell-based. The settings on record: for Emax / DC50: 6.0 hours; for Emax: % remaining protein, read-out: 293T.144 RET (658-1114) 6.0 hours (Emax); for DC50: half-maximal degradation concentration, read-out: 293T.144 RET (658-1114) 6.0 hours (DC50). The procedure, abridged: as §1

Structures are written as SMILES. Substitutions are numbered along the chain they refer to.

Consider `CCC1(c2ncccn2)CCN(c2ccc(-c3nc(-c4cnn(C5CCN(C(=O)CC6(O)CCN(c7ccc(NC8CCC(=O)NC8=O)cc7F)CC6)CC5)c4)cn4ncc(C#N)c34)cn2)CC1` (stereo not drawn) [Compound 105, 6-[1-[1-[2-[1-[4-[(2,6-dioxo-3-piperidyl)amino]-2-fluoro-phenyl]-4-hydroxy-4-piperidyl]acetyl]-4-piperidyl]pyrazol-4-yl]-4-[6-(4-ethyl-4-pyrimidin-2-yl-1-piperidyl)-3-pyridyl]pyrazolo[1,5-a]pyrazine-3-carbonitrile], for which, at RET(KD: 658-1114 G810R), the “293T.165 RET(KD: 658-1114 G810R) 6.0 hours (IP) [nM]” value is on record as “++++ (<50 nM = ++++)”, the maximal effect (Emax) is below 50% and the half-maximal degradation concentration (DC50) is below 50 nM. Besides, on RET (658-1114), the “293T.144 RET (658-1114) 6.0 hours (IP) [nM]” value (from here on “293T.144 RET”) is listed as “++++ (<50 nM = ++++)”, the Emax is below 30% and the DC50 was below 50 nM.
`N#Cc1cnn2cc(-c3cnn(C4CCN(C(=O)CC5(O)CCN(c6ccc(NC7CCC(=O)NC7=O)cc6F)CC5)CC4)c3)nc(-c3ccc(N4CCN(C(=O)c5cccnc5)CC4)nc3)c12` (stereo not drawn) [Compound 106, 6-[1-[1-[2-[1-[4-[(2,6-dioxo-3-piperidyl)amino]-2-fluoro-phenyl]-4-hydroxy-4-piperidyl]acetyl]-4-piperidyl]pyrazol-4-yl]-4-[6-[4-(pyridine-3-carbonyl)piperazin-1-yl]-3-pyridyl]pyrazolo[1,5-a]pyrazine-3-carbonitrile]: on RET(KD: 658-1114 G810R), the “293T.165 RET(KD: 658-1114 G810R) 6.0 hours (IP) [nM]” value is reported as “++++ (<50 nM = ++++)”, the maximal response (Emax) was below 50% and the 50% degradation concentration (DC50) was below 100 nM. Also, at RET (658-1114), the “293T.144 RET” value is “++++ (<50 nM = ++++)”, the Emax is below 30% and the 50% degradation concentration (DC50) was below 50 nM.
`N#Cc1cnn2cc(-c3cnn(C4CCN(C(=O)CC5(O)CCN(c6ccc(NC7CCC(=O)NC7=O)cc6F)CC5)CC4)c3)nc(-c3ccc(N4CCN(C(=O)C5CCCCC5)CC4)nc3)c12` (stereo not drawn) [Compound 107, 4-[6-[4-(cyclohexanecarbonyl)piperazin-1-yl]-3-pyridyl]-6-[1-[1-[2-[1-[4-[(2,6-dioxo-3-piperidyl)amino]-2-fluoro-phenyl]-4-hydroxy-4-piperidyl]acetyl]-4-piperidyl]pyrazol-4-yl]pyrazolo[1,5-a]pyrazine-3-carbonitrile]: at RET(KD: 658-1114 G810R), the “293T.165 RET(KD: 658-1114 G810R) 6.0 hours (IP) [nM]” value is listed as “++++ (<50 nM = ++++)”, the maximal effect (Emax) is below 30% and the DC50 is below 100 nM. Also, on RET (658-1114), the “293T.144 RET” value is on record as “++++ (<50 nM = ++++)”, the Emax is below 30% and the DC50 is below 50 nM.
As to `N#Cc1cnn2cc(-c3cnn(C4CCN(C(=O)CC5(O)CCN(c6ccc(NC7CCC(=O)NC7=O)cc6F)CC5)CC4)c3)nc(-c3ccc(N4CCCN(Cc5ccccc5)CC4)nc3)c12` (stereo not drawn) [Compound 108, 4-[6-(4-benzyl-1,4-diazepan-1-yl)-3-pyridyl]-6-[1-[1-[2-[1-[4-[(2,6-dioxo-3-piperidyl)amino]-2-fluoro-phenyl]-4-hydroxy-4-piperidyl]acetyl]-4-piperidyl]pyrazol-4-yl]pyrazolo[1,5-a]pyrazine-3-carbonitrile], at RET(KD: 658-1114 G810R), the “293T.165 RET(KD: 658-1114 G810R) 6.0 hours (IP) [nM]” value is given as “++++ (<50 nM = ++++)”, the maximal effect (Emax) is below 30% and the DC50 is below 50 nM. On RET (658-1114), the “293T.144 RET” value is “++++ (<50 nM = ++++)”, the Emax was below 30% and the half-maximal degradation concentration (DC50) is below 50 nM.
As to `N#Cc1cnn2cc(-c3cnn(C4CCN(C(=O)CC5(O)CCN(c6ccc(NC7CCC(=O)NC7=O)cc6F)CC5)CC4)c3)nc(-c3ccc(N4CCC(Oc5ccccn5)CC4)nc3)c12` (stereo not drawn) [Compound 109, 6-[1-[1-[2-[1-[4-[(2,6-dioxo-3-piperidyl)amino]-2-fluoro-phenyl]-4-hydroxy-4-piperidyl]acetyl]-4-piperidyl]pyrazol-4-yl]-4-[6-[4-(2-pyridyloxy)-1-piperidyl]-3-pyridyl]pyrazolo[1,5-a]pyrazine-3-carbonitrile], at RET(KD: 658-1114 G810R), the “293T.165 RET(KD: 658-1114 G810R) 6.0 hours (IP) [nM]” value is on record as “++++ (<50 nM = ++++)”, the Emax is below 30% and the half-maximal degradation concentration (DC50) was below 50 nM. Further, on RET (658-1114), the “293T.144 RET” value is given as “++++ (<50 nM = ++++)”, the Emax was below 30% and the DC50 was below 50 nM.
As to `CCC1(c2ccccn2)CCN(c2ccc(-c3nc(-c4cnn(C5CCN(C(=O)CN6CCC(c7ccc(NC8CCC(=O)NC8=O)cc7F)CC6)CC5)c4)cn4ncc(C#N)c34)cn2)CC1` (stereo not drawn) [Compound 110, 6-[1-[1-[2-[4-[4-[(2,6-dioxo-3-piperidyl)amino]-2-fluoro-phenyl]-1-piperidyl]acetyl]-4-piperidyl]pyrazol-4-yl]-4-[6-[4-ethyl-4-(2-pyridyl)-1-piperidyl]-3-pyridyl]pyrazolo[1,5-a]pyrazine-3-carbonitrile], at RET(KD: 658-1114 G810R), the “293T.165 RET(KD: 658-1114 G810R) 6.0 hours (IP) [nM]” value is given as “+++ (<100 nM = +++)”, the maximal effect (Emax) was below 30% and the half-maximal degradation concentration (DC50) was below 100 nM. At RET (658-1114), the “293T.144 RET” value is “++++ (<50 nM = ++++)”, the Emax was below 30% and the DC50 was below 50 nM.
`N#Cc1cnn2cc(-c3cnn(C4CCN(C(=O)CC5(O)CCN(c6ccc(NC7CCC(=O)NC7=O)cc6F)CC5)CC4)c3)nc(-c3ccc(N4CCN(C(=O)C5CCC5)CC4)nc3)c12` (stereo not drawn) [Compound 112, 4-[6-[4-(cyclobutanecarbonyl)piperazin-1-yl]-3-pyridyl]-6-[1-[1-[2-[1-[4-[(2,6-dioxo-3-piperidyl)amino]-2-fluoro-phenyl]-4-hydroxy-4-piperidyl]acetyl]-4-piperidyl]pyrazol-4-yl]pyrazolo[1,5-a]pyrazine-3-carbonitrile]: at RET(KD: 658-1114 G810R), the “293T.165 RET(KD: 658-1114 G810R) 6.0 hours (IP) [nM]” value was “++++ (<50 nM = ++++)”, the maximal response (Emax) is below 50% and the DC50 was below 50 nM. At RET (658-1114), the “293T.144 RET” value was “++++ (<50 nM = ++++)”, the Emax was below 30% and the DC50 was below 50 nM.
As to `N#Cc1cnn2cc(-c3cnn(C4CCN(C(=O)CC5(O)CCN(c6ccc(NC7CCC(=O)NC7=O)cc6F)CC5)CC4)c3)nc(-c3ccc(N4CCC5(CC4)OCc4cccnc45)nc3)c12` (stereo not drawn) [Compound 113, 6-[1-[1-[2-[1-[4-[(2,6-dioxo-3-piperidyl)amino]-2-fluoro-phenyl]-4-hydroxy-4-piperidyl]acetyl]-4-piperidyl]pyrazol-4-yl]-4-(6-spiro[5H-furo[3,4-b]pyridine-7,4′-piperidine]-1′-yl-3-pyridyl)pyrazolo[1,5-a]pyrazine-3-carbonitrile], at RET(KD: 658-1114 G810R), the “293T.165 RET(KD: 658-1114 G810R) 6.0 hours (IP) [nM]” value is listed as “++++ (<50 nM = ++++)”, the maximal response (Emax) is below 30% and the DC50 is below 50 nM. In addition, on RET (658-1114), the “293T.144 RET” value is listed as “++++ (<50 nM = ++++)”, the maximal effect (Emax) is below 30% and the 50% degradation concentration (DC50) is below 50 nM.
Take `COCC1(Cc2ccccn2)CCN(c2ccc(-c3nc(-c4cnn(C5CCN(C(=O)CC6(O)CCN(c7ccc(NC8CCC(=O)NC8=O)cc7F)CC6)CC5)c4)cn4ncc(C#N)c34)cn2)CC1` (stereo not drawn) [Compound 114, 6-[1-[1-[2-[1-[4-[(2,6-dioxo-3-piperidyl)amino]-2-fluoro-phenyl]-4-hydroxy-4-piperidyl]acetyl]-4-piperidyl]pyrazol-4-yl]-4-[6-[4-(methoxymethyl)-4-(2-pyridylmethyl)-1-piperidyl]-3-pyridyl]pyrazolo[1,5-a]pyrazine-3-carbonitrile]: at RET(KD: 658-1114 G810R), the “293T.165 RET(KD: 658-1114 G810R) 6.0 hours (IP) [nM]” value was “++++ (<50 nM = ++++)”, the maximal effect (Emax) was below 30% and the 50% degradation concentration (DC50) was below 50 nM. Besides, at RET (658-1114), the “293T.144 RET” value is reported as “++++ (<50 nM = ++++)”, the Emax was below 30% and the DC50 is below 50 nM.

Usually Emax stands for the size of the effect at its maximum, as opposed to the concentration needed. For orientation: DC50 means the midpoint of the concentration-degradation curve.
